Assay results published in a melting point compilation (Tetko et al.; mined from patent text by program, amines drawn as free bases though some values may be those of a salt).

With `O=[N+]([O-])c1ccc(OCC(O)CO)c(O)c1` (centres undefined) the melting point was 162 °C. `O=C1COc2cc(NC(=O)C(=O)N3CCC(CCc4ccccc4)CC3)ccc2N1` gave a melting point of 128 to 132 °C. With `COCNC(=S)n1nc(Oc2ccc(C#N)cc2C(F)(F)F)cc1C` the melting point was 89 to 90 °C. `CCN(CC)CCNc1nc(N)nc(-c2cc(Cl)ccc2Cl)n1` gave a melting point of 141 to 142 °C. With `NCc1ccc(C2CCN(c3cc4c(cc3F)c(=O)c(C(=O)O)cn4C3CC3)C2)cc1` (centres undefined) the melting point was 268 to 272 °C. With `CCCOc1ccc(-c2scc(-c3ccccc3Cl)c2CC(=O)NC(=N)NCCCO)cc1` the melting point was 49 to 50 °C. In the case of `CCNC(=O)N(C)c1c(C)cc(C(O)(C(F)(F)F)C(F)(F)F)cc1C`, the melting point is reported as 178 to 179 °C. `CN(C)C=C1CC(=O)c2ccccc2NC1=O` showed a melting point of 203 to 205 °C. Compound `O=C1SCC(O)=C1Cc1ccc(Br)cc1` has a melting point of 201 to 202 °C. With `Cc1ccc(S(=O)(=O)N2CC3=C(CNCC3)C2)cc1` the melting point was 201 °C. `Cc1ncnn1-c1cc(F)ccc1CNC(=O)c1nc2n(c(=O)c1OCc1ccccc1)CCN2c1ccccc1` gave a melting point of 181 °C. `OC(CCc1ccccc1)c1cnc2sc3c(n12)CCCC3` (centres undefined) showed a melting point of 152 to 153 °C. Compound `CCOCc1nc2c(N)nc3cc(-c4cccnc4)ccc3c2n1Cc1ccc(CNC(=O)OC(C)(C)C)cc1` has a melting point of 196 to 197 °C. Compound `CC(C)(C)C(=O)C(=Cc1cccnc1)Oc1ccc(Cl)cc1` has a melting point of 74 to 76 °C. With `CC(=O)Nc1ccc(Oc2ccccc2)c2c(=O)c3ccccc3n(C)c12` the melting point was 252 to 254 °C. Work on `CC(C)Oc1cc(CO)n(Cc2ccc(Cl)cc2Cl)n1` yielded a melting point of 89 to 90 °C. Compound `Cc1ccc2c(c1)C(C)(C)[C@@H](C)[C@H](C)C2(C)C` (relative stereo) has a melting point of 65 to 66 °C. For `C=CCNC(=O)c1c([Si](C)(C)C)sc2ccccc12`, the melting point was 72 to 75 °C. `COCCOC(=O)OC[C@@H](O)[C@@H]1CC(c2ccc(-c3ccc(N4C[C@H](Cn5ccnn5)OC4=O)cc3F)cn2)=NO1` gave a melting point of 125 °C. Work on `COc1ccc(C2(CCN3CCC(O)(c4nc5ccccc5n4Cc4ccc(F)cc4)CC3)CCN(C(=O)c3ccccc3)C2)cc1OC` (centres undefined) yielded a melting point of 111 to 114 °C. For `Cc1cccc(C)c1N(CC(C)OS(C)(=O)=O)S(C)(=O)=O` (centres undefined), the melting point was 111 to 114 °C. `CCOC(=O)C(CNC(C)=O)c1cn(C(=O)OCC)c2ccc(OC)cc12` (centres undefined) gave a melting point of 88 to 90 °C. Work on `C=C(c1ccc(OC)c(OC2CCCC2)c1)c1n[nH]cc1CO` yielded a melting point of 121 to 123 °C. In the case of `Cc1nc2ccc(O)cc2c(=O)n1C1CCC(=O)NC1=O` (centres undefined), the melting point is reported as 315 to 317 °C. With `CCCCCS(=O)(=O)NC(=O)/C=C/c1ccc(OCC2CCCO2)cc1Oc1ncc(C(F)(F)F)cc1Cl` (centres undefined) the melting point was 126 to 128 °C. For `OC(COCc1ncc[nH]1)c1ccc2sccc2c1` (centres undefined), the melting point was 128 to 129 °C. Work on `O=[N+]([O-])c1ccc2c(c1)C[C@H]1CSC(=S)N1C2` yielded a melting point of 220 °C. Work on `CN(C)CCN1CCC(O)(c2ccccc2)C(C(O)c2ccccc2)C1` (centres undefined) yielded a melting point of 157 to 158 °C. `CCCCc1ccc(-c2nc3c(s2)C(=O)C(NCCN(C)C)=CC3=O)cc1` gave a melting point of 126 to 127 °C. `O=C(O)CCNC(=O)CCC(=O)Nc1cccc2ccccc12` gave a melting point of 180 to 182 °C. `Cc1ccc(NC(=O)N(C)C)cc1` showed a melting point of 154 to 157 °C. Compound `CCCCCc1cc2c(nc(O)n2CCCNC(C)=O)c(N)n1` has a melting point of 189 to 191 °C. `CCOC(=O)C1(Nc2cc(Cl)cc(Cl)c2)CC(C(=O)O)Nc2cc(Cl)cc(Cl)c21` (centres undefined) gave a melting point of 92 to 94 °C. For `N#CC1CCN(c2ccc3c(NC(=O)CC4CCCCC4)c(Cl)ccc3n2)CC1`, the melting point was 235 to 237 °C. With `Nc1ncnc2c1c(-c1ccc(Oc3ccccc3)cc1)cn2C1CC2CC(O)CC2C1` (centres undefined) the melting point was 193 to 194 °C. Compound `CNc1ccc(F)c(C#N)c1` has a melting point of 64 to 65 °C. Work on `CCS(=O)(=O)c1cc2c(c(C(=O)Cl)c1)OCCO2` yielded a melting point of 146 to 147 °C. With `CCOC(=O)Cn1c2c([nH]c(=O)c1=O)CCC1=C2C=C(N)CC1` the melting point was 238 °C. `O=c1ncc(Br)cn1Cc1cccs1` gave a melting point of 188 to 190 °C. Work on `COC(=O)CSCc1cccc(-c2nc(=O)c3ccccc3s2)n1` yielded a melting point of 108 to 110 °C. For `Cc1nccn1-c1ccc([N+](=O)[O-])cc1`, the melting point was 135 to 137 °C. Compound `COC(=O)c1cc(NC(=O)OC(C)(C)C)c([N+](=O)[O-])cc1I` has a melting point of 126 °C. With `CN=Cc1cccc(C(=O)NC)c1` the melting point was 87 °C. For `COc1cc(N2CCOCC2)ccc1Nc1nc(Nc2ccc3c(c2OC)CCCC(=O)N3C)ncc1Cl`, the melting point was 197 to 199 °C. Compound `CC1(C)CC(=O)c2c(S(C)(=O)=O)sc(-c3cc[nH]n3)c2C1` has a melting point of 213 to 216 °C. For `O=C(Nc1ccc(Cl)c(Cl)c1)NS(=O)(=O)c1ccc2c(c1)C(=O)CO2`, the melting point was 209 to 211 °C. `Cc1sc2[nH]c(=O)n(Cc3ccc(Cl)cc3)c(=O)c2c1C` showed a melting point of 291 to 292 °C. Compound `Cc1nnc(-c2ccc3occ(-c4cnn(C)c4)c3c2)o1` has a melting point of 147 to 148 °C. `O=Cc1ccc2c(c1)ncn2-c1cccc(-c2cccnc2)c1` showed a melting point of 200 to 202 °C. In the case of `NCc1cccnc1C1CCN(c2c(F)c(N)c3c(=O)c(C(=O)O)cn(C4CC4)c3c2F)C1` (centres undefined), the melting point is reported as 226 to 228 °C. With `COc1cc(COc2nn(-c3ccccc3)cc2CC(=O)N2CCOCC2)ccc1OCc1nc(-c2ccco2)oc1C` the melting point was 132 to 133 °C. For `O=Cc1c[nH]c(-c2ccccc2)c1`, the melting point was 136 to 137 °C. `Cc1ccc(S(=O)(=O)OCC2Cc3cccc(-c4ccccc4C(F)(F)F)c3O2)cc1` (centres undefined) gave a melting point of 116 to 118 °C. In the case of `CN(c1cc(OCCCS(C)(=O)=O)cc2cc(C3=NCC(CN4CCN(S(C)(=O)=O)CC4)S3)[nH]c12)S(=O)(=O)c1ccccn1` (centres undefined), the melting point is reported as 151 to 153 °C. `CC(C)(CSc1ccc(Cl)cc1)C(Cn1ccnc1)=NO` showed a melting point of 125 to 126 °C. For `COc1ccc(C(=O)c2c(CO[N+](=O)[O-])[nH]c(=O)n2C(C)=O)cc1`, the melting point was 165 to 166 °C. With `Cc1nc(Sc2ccccn2)sc1CC(=O)O` the melting point was 140 to 142 °C. `CSc1nc2ccccc2c(-c2ccccc2)c1C(=O)N(C)Cc1cc(C(F)(F)F)cc(C(F)(F)F)c1` showed a melting point of 144 to 145 °C. `O=C(c1ccccc1)c1ccc(Br)s1` showed a melting point of 41 to 43 °C. In the case of `CC(C)Cn1c(CNC(=O)OC(C)(C)C)c(-c2ccccc2)c2cc(-c3nc(C#N)cs3)ccc2c1=O`, the melting point is reported as 209 to 211 °C. Work on `CCCCC(=O)c1c(-c2ccncc2)[nH]c(-c2ccncc2)c1C` yielded a melting point of 88 to 89 °C. Work on `COC(=O)C1=C(O)c2c(c3cc(C)ccc3n2C)S(=O)(=O)N1C` yielded a melting point of 144 to 145 °C. With `COc1ccc2c(C(=O)c3cc(OC)c(OC)c(OC)c3)c(-c3ccc(OC)c(O)c3)[nH]c2c1` the melting point was 189 to 190 °C. `COc1ccc(-n2c(=O)c3c(Cc4ccccc4)n[nH]c3c3cccnc32)cc1` showed a melting point of over 320 °C. For `CC(C)(C)OC(=O)CN1CC(c2cccc3ccccc23)SCC(N2C(=O)c3ccccc3C2=O)C1=O` (centres undefined), the melting point was 211 to 213 °C. Work on `C[C@@H]1Cc2ccsc2[C@H](C)N1CCNC(=O)c1ccc(C#N)cc1` (relative stereo) yielded a melting point of 122 to 124 °C. `CC(C)NCC(O)COc1ccc(C2=NNC(=O)CC2)cc1` (centres undefined) showed a melting point of 108 to 115 °C. In the case of `CC(=O)OC1CSC(Oc2ccc(Cl)nc2)C(OC(C)=O)C1OC(C)=O` (centres undefined), the melting point is reported as 141 °C. `O=C(c1ccc(-c2ccn(C(=O)c3ccc(F)cc3Cl)n2)cc1)N1Cc2cccn2Cc2ccccc21` gave a melting point of 150 to 157 °C. In the case of `COc1ccc(C(=O)Nc2ccccc2)cc1NC(=S)Nc1ccc([N+](=O)[O-])cc1`, the melting point is reported as 183 to 184 °C. `CCOC(=O)C1(CC(C)=O)OC(=O)C(=O)C1C(C)=O` (centres undefined) gave a melting point of 87 to 88 °C. For `Oc1cccc2c1CCC(N(CCCF)CCc1cccs1)C2` (centres undefined), the melting point was 105 to 109 °C. `NCC1COc2cc(Cl)cc(-c3ccccc3)c2N1` (centres undefined) showed a melting point of 92 °C. Work on `CC(C)(C)NC(=O)NC1(C#N)CCCC1` yielded a melting point of 206 to 207 °C. With `CC(C)(C(=O)O)c1cccc(O[Si](C)(C)C(C)(C)C)c1` the melting point was 72 to 74 °C. `N#Cc1ccc2c(c1)c1c(n2Cc2cccc(F)n2)CCC(NC(=O)C2CC2)C1` (centres undefined) showed a melting point of 243 to 245 °C. For `CCc1cccc(CC)c1NC(=O)Nc1oc2ccc(Cl)cc2c1-c1ccccc1C`, the melting point was 233 to 234 °C. Compound `CCOC(=O)c1ccc2nc[nH]c2c1` has a melting point of 93 to 94 °C. `CCC(C)C(C)C(=O)Nc1ccc2c(C)cn3c(=O)c(C(=O)Nc4nnn[nH]4)cnc3c2c1` (centres undefined) gave a melting point of over 300 °C. Work on `O=C1Cc2cc(Sc3ccccc3)ncc2N1` yielded a melting point of 186 to 189 °C. `O=C1Nc2ccccc2Nc2cscc21` showed a melting point of 233 to 234 °C. Work on `O=S1CCC(c2ccccc2)(c2ccccc2)CC1` yielded a melting point of 122 °C. Work on `CC(=O)c1ccc(-c2ccc(F)cc2Cl)c([N+](=O)[O-])c1` yielded a melting point of 93 to 95 °C. `CCOC(=O)N1CCN(c2nc(C)nc3c2OCC(=O)N3)CC1` gave a melting point of 197 to 198 °C. Work on `CN(C)N1C(=O)c2ccccc2NS1(=O)=O` yielded a melting point of 168 °C. Compound `Nc1ccc(OC(F)(F)F)c(C(=O)O)c1` has a melting point of 196 to 197 °C. `CCSc1nc2c(C)ccnc2n1Cc1ccc(C2(Br)CC(C#N)=CN2C)cc1` (centres undefined) gave a melting point of 161 to 163 °C. For `O=C(O)c1cn2c(n1)COc1ccccc1-2`, the melting point was 256 to 258 °C. `CC1(C)OC(=O)C(Oc2ccc3sccc3c2)=C1c1ccc(S(C)(=O)=O)cc1` gave a melting point of 150 to 152 °C. With `O=C1CCC(n2cnc3cc(F)ccc3c2=O)C(=O)N1` (centres undefined) the melting point was 296 to 298 °C. `CCCOC(Cc1ccc(OCc2nc(C(C)(C)C)oc2C)c2ccccc12)C(=O)O` (centres undefined) gave a melting point of 169 to 170 °C. Compound `CCCCCCCN(C[C@H]1CCC[C@H](CN(CCCCCCC)C(=O)Nc2ccc(N(C)C)cc2)C1)C(=O)Nc1ccc(N(C)C)cc1` (relative stereo) has a melting point of 121 to 126 °C. In the case of `C=CCC(N)(Cc1ccccc1)C(N)=O` (centres undefined), the melting point is reported as 120 to 121 °C. For `COc1ccc(-c2csc(Nc3ccc(C)cn3)n2)c(OC)c1`, the melting point was 157 to 158 °C. Work on `CCOC(=O)c1c(-c2ccc(F)cc2)cc(-c2ccccc2)n1C(C)C` yielded a melting point of 97 to 100 °C. With `CCCCCCCCCCCCOc1ccc(C=C(C(=O)OCC(O)CO)C(=O)OCC(O)CO)cc1` (centres undefined) the melting point was 80 to 85 °C. Work on `O=S1(=O)CCN2C=CC=C(c3ccc(OCC4CCOCC4)cc3)C2=N1` yielded a melting point of 268 to 269 °C. In the case of `CCOC(=O)C=Cc1ccc(OCc2coc(-c3ccccc3)n2)c(OC)c1`, the melting point is reported as 128 to 129 °C. Work on `COc1cc(NC(C)=O)c(Cl)cc1C(=O)NN1CCN(Cc2ccccc2)CC1` yielded a melting point of 185 °C.
